Results taken from patent US10597388B2, “Pyridazinone herbicides” (FMC CORPORATION, priority 2014, dated 2020).

Legend:
Assay in all cases: Test E greenhouse herbicide test, pre- and postemergence
Type in all cases: in vivo
[1] = system: nutsedge, yellow (yellow nutsedge, Cyperus esculentus); settings: Preemergence
Outline: (§1)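 Visual ratings, 0 for no effect up to 100 for complete control, were taken relative to controls 14 to 21 d after greenhouse treatment. Applications used a surfactant-containing non-phytotoxic solvent formulation, sprayed either preemergence on silt loam-sown seed or postemergence on 1- to 4-leaf plants 2-18 cm tall in peat-based potting medium.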

[2] = system: sandbur (southem sandbur, Cenchrus echinatus)
Outline: as §1

[3] = system: Italian ryegrass (Lolium multiflorum)
Outline: as §1

[4] = system: crabgrass, large (large crabgrass, Digitaria sanguinalis); settings: Preemergence
Outline: as §1

[5] = system: lambsquarters (Chenopodium album); settings: Preemergence
Outline: as §1

[6] = system: crabgrass, Brazilian (Brazilian crabgrass, Digitaria horizontalis)
Outline: as §1

[7] = system: panicum, fall (fall panicum, Panicum dichotomiflorum)
Outline: as §1

[8] = system: velvetleaf (Abutilon theophrasti); settings: Preemergence
Outline: as §1

[9] = system: ragweed (common ragweed, Ambrosia elatior)
Outline: as §1

[10] = system: dayflower (Virginia (VA) dayflower, Commelina virginica)
Outline: as §1

[11] = system: waterhemp (common waterhemp, Amaranthus rudis)
Outline: as §1

[12] = system: kochia (Kochia scoparia)
Outline: as §1

[13] = system: beggarticks (hairy beggarticks, Bidens pilosa)
Outline: as §1

[14] = system: foxtail, green (green foxtail, Setaria viridis); settings: Preemergence
Outline: as §1

[15] = system: foxtail, giant (giant foxtail, Setaria faberii); settings: Preemergence
Outline: as §1

[16] = system: johnsongrass (Sorghum halepense); settings: Preemergence
Outline: as §1

[17] = system: barnyardgrass (Echinochloa crus-galli)
Outline: as §1

[18] = 62 g ai/ha, scale 0 to 100 (0 no effect, 100 complete control)
[19] = 125 g ai/ha, scale 0 to 100 (0 no effect, 100 complete control)
[20] = 31 g ai/ha, scale 0 to 100, 0 no effect, 100 complete control
[21] = 250 g ai/ha, visual, scale 0 no effect to 100 complete control
[22] = 62 g ai/ha, Preemergence, scale 0 to 100 (0 no effect, 100 complete control)
[23] = 125 g ai/ha, Postemergence, scale 0 to 100 (0 no effect, 100 complete control)
[24] = 125 g ai/ha, Preemergence, scale 0 to 100 (0 no effect, 100 complete control)
[25] = 250 g ai/ha, Postemergence, scale 0 to 100 (0 no effect, 100 complete control)
[26] = Postemergence, 31 g ai/ha, visual, scale 0 no effect to 100 complete control
[27] = Preemergence, 31 g ai/ha, scale 0 to 100, 0 no effect, 100 complete control
[28] = Preemergence, 250 g ai/ha, visual, scale 0 no effect to 100 complete control
[29] = 62 g ai/ha, Postemergence, scale 0 to 100 (0 no effect, 100 complete control)

CCOC(=O)Oc1c(C)nn(C)c(=O)c1-c1c(C)sc2c(C)cc(C)cc12 [Compound 83]
Plant response rating, Nutsedge, Yellow [1, 18]: 65 | Plant response rating, Nutsedge, Yellow [1, 19]: 70 | Plant response rating, Nutsedge, Yellow [1, 20]: 65 | Plant response rating, Nutsedge, Yellow [1, 21]: 75 | Plant response rating, Sandbur [2, 22]: 70 | Plant response rating, Sandbur [2, 23]: 65 | Plant response rating, Sandbur [2, 24]: 75 | Plant response rating, Sandbur [2, 25]: 70 | Plant response rating, Sandbur [2, 26]: 40 | Plant response rating, Sandbur [2, 27]: 20 | Plant response rating, Sandbur [2, 28]: 80 | Plant response rating, Ryegrass, Italian [3, 29]: 60 | Plant response rating, Ryegrass, Italian [3, 22]: 95 | Plant response rating, Ryegrass, Italian [3, 23]: 80 | Plant response rating, Ryegrass, Italian [3, 24]: 98 | Plant response rating, Ryegrass, Italian [3, 25]: 85 | Plant response rating, Ryegrass, Italian [3, 26]: 60 | Plant response rating, Ryegrass, Italian [3, 27]: 80 | Plant response rating, Ryegrass, Italian [3, 28]: 100 | Plant response rating, Crabgrass, Large [4, 18]: 5 | Plant response rating, Crabgrass, Large [4, 19]: 40 | Plant response rating, Crabgrass, Large [4, 20]: 0 | Plant response rating, Crabgrass, Large [4, 21]: 20 | Plant response rating, Lambsquarters [5, 18]: 98 | Plant response rating, Lambsquarters [5, 19]: 100 | Plant response rating, Lambsquarters [5, 20]: 100 | Plant response rating, Lambsquarters [5, 21]: 100 | Plant response rating, Crabgrass, Brazil [6, 29]: 40 | Plant response rating, Crabgrass, Brazil [6, 22]: 10 | Plant response rating, Crabgrass, Brazil [6, 23]: 50 | Plant response rating, Crabgrass, Brazil [6, 24]: 50 | Plant response rating, Crabgrass, Brazil [6, 25]: 50 | Plant response rating, Crabgrass, Brazil [6, 26]: 30 | Plant response rating, Crabgrass, Brazil [6, 27]: 0 | Plant response rating, Crabgrass, Brazil [6, 28]: 80 | Plant response rating, Panicum, Fall [7, 29]: 70 | Plant response rating, Panicum, Fall [7, 22]: 95 | Plant response rating, Panicum, Fall [7, 23]: 80 | Plant response rating, Panicum, Fall [7, 24]: 100 | Plant response rating, Panicum, Fall [7, 25]: 90 | Plant response rating, Panicum, Fall [7, 26]: 70 | Plant response rating, Panicum, Fall [7, 27]: 90 | Plant response rating, Panicum, Fall [7, 28]: 98 | Plant response rating, Velvetleaf [8, 18]: 35 | Plant response rating, Velvetleaf [8, 19]: 70 | Plant response rating, Velvetleaf [8, 20]: 0 | Plant response rating, Velvetleaf [8, 21]: 100 | Plant response rating, Ragweed [9, 29]: 50 | Plant response rating, Ragweed [9, 22]: 75 | Plant response rating, Ragweed [9, 23]: 70 | Plant response rating, Ragweed [9, 24]: 95 | Plant response rating, Ragweed [9, 25]: 75 | Plant response rating, Ragweed [9, 26]: 60 | Plant response rating, Ragweed [9, 27]: 70 | Plant response rating, Ragweed [9, 28]: 98 | Plant response rating, Dayflower, VA [10, 29]: 60 | Plant response rating, Dayflower, VA [10, 22]: 10 | Plant response rating, Dayflower, VA [10, 23]: 75 | Plant response rating, Dayflower, VA [10, 24]: 25 | Plant response rating, Dayflower, VA [10, 25]: 70 | Plant response rating, Dayflower, VA [10, 26]: 50 | Plant response rating, Dayflower, VA [10, 27]: 0 | Plant response rating, Dayflower, VA [10, 28]: 65 | Plant response rating, Waterhemp [11, 22]: 65 | Plant response rating, Waterhemp [11, 23]: 40 | Plant response rating, Waterhemp [11, 24]: 75 | Plant response rating, Waterhemp [11, 25]: 60 | Plant response rating, Waterhemp [11, 26]: 40 | Plant response rating, Waterhemp [11, 27]: 65 | Plant response rating, Waterhemp [11, 28]: 75 | Plant response rating, Kochia [12, 29]: 60 | Plant response rating, Kochia [12, 22]: 0 | Plant response rating, Kochia [12, 23]: 75 | Plant response rating, Kochia [12, 24]: 0 | Plant response rating, Kochia [12, 25]: 65 | Plant response rating, Kochia [12, 26]: 40 | Plant response rating, Kochia [12, 27]: 0 | Plant response rating, Kochia [12, 28]: 75 | Plant response rating, Beggarticks [13, 29]: 100 | Plant response rating, Beggarticks [13, 22]: 100 | Plant response rating, Beggarticks [13, 23]: 100 | Plant response rating, Beggarticks [13, 24]: 100 | Plant response rating, Beggarticks [13, 25]: 100 | Plant response rating, Beggarticks [13, 26]: 98 | Plant response rating, Beggarticks [13, 27]: 100 | Plant response rating, Beggarticks [13, 28]: 100 | Plant response rating, Foxtail, Green [14, 18]: 40 | Plant response rating, Foxtail, Green [14, 19]: 95 | Plant response rating, Foxtail, Green [14, 20]: 0 | Plant response rating, Foxtail, Green [14, 21]: 70 | Plant response rating, Foxtail, Giant [15, 18]: 98 | Plant response rating, Foxtail, Giant [15, 19]: 100 | Plant response rating, Foxtail, Giant [15, 20]: 95 | Plant response rating, Foxtail, Giant [15, 21]: 100 | Plant response rating, Johnsongrass [16, 18]: 0 | Plant response rating, Johnsongrass [16, 19]: 0 | Plant response rating, Johnsongrass [16, 20]: 0 | Plant response rating, Johnsongrass [16, 21]: 20 | Plant response rating, Barnyardgrass [17, 29]: 50 | Plant response rating, Barnyardgrass [17, 22]: 30 | Plant response rating, Barnyardgrass [17, 23]: 40 | Plant response rating, Barnyardgrass [17, 24]: 35 | Plant response rating, Barnyardgrass [17, 25]: 50 | Plant response rating, Barnyardgrass [17, 26]: 40 | Plant response rating, Barnyardgrass [17, 27]: 0 | Plant response rating, Barnyardgrass [17, 28]: 75
